Laboratory results published in patent publication US4952560A, “Ointment base” (Takeda Chemical Industries, Ltd., priority 1984, dated 1990).
Counter-ions that a name gives are not always drawn.

System: Pressor reaction (norepinephirine)
Assay: Pressor reaction inhibiting effect of prazosin hydrochloride-containing preparation (Test Example 2)
Format: in vivo, male SD rats
Conditions: oral, 20 mg/kg once daily, 3 days; 24 h after last dose; norepinephirine 3 μg/kg i.v.; control 48.6 ± 1.2; * significant difference from control (risk factor 5%)
Procedure: (B) A suspension of prazosin hydrochloride in 1% gum arabic suspension was orally administered.
The dosage for both treatment groups was 20 mg/kg once daily and the treatment was carried out for 3 consecutive days. Twenty-four hours after the last dosing, 3 μg/kg of norepinephirine was intravenously administered under pentobarbital sodium anesthesia (dosage 40 mg/kg; intraperitoneal) and the resulting pressor reaction was compared with that in the untreated control group.

Compound: COc1cc2nc(N3CCN(C(=O)c4ccco4)CC3)nc(N)c2cc1OC [prazosin hydrochloride]
- Pressor reaction: 34.9 ± 2.2 mmHg
